Measurements from US20170363637A1, “Method and Kit for Determining Risk of Preterm Birth and/or Birth of Low-Birth-Weight Baby” (HIROSHIMA UNIVERSITY, priority 2014, published 2017).

Legend:
[1] = test system: C57Bl/6J mice infected with P.g. w83 strain; test: Effect of Gal-3 inhibitor on preterm birth induced by dental infection of P.g. (gestational period); assay type: in vivo, mouse; conditions: 5 mg/kg N-Lac intraperitoneally at gestational ages of 12, 15 and 18 days
Description: Effect of a Gal-3 inhibitor, N-acetyllactosamine (N-Lac), on preterm birth induced by dental infection of P.g. was studied.
8-wks-old female C57Bl/6J mice were infected with P.g. w83 strain via the pulp chambers of the first molars. After periapical granuloma, which serves as a persistent source of P.g., was established at 6wks post-infection, mating was started (P.g. group). A half of the mice in P.g. group was intraperitoneally administered with 5 mg/kg of N-Lac (Sigma-Aldrich) at the gestational ages of 12, 15 and 18 days (P.g./N-Lac group). Healthy pregnant mice without P.g. infection were used as a control (NC group). The gestational period was compared among the groups. At the gestational age of 17 days the placental tissues were harvested, and inflammatory cell infiltration (MΦ, neutrophils), damage of endothelial cells (CD31), and immunolocalization of factors promoting delivery (TNF-α, COX-2, and Gal-3) were compared among the groups.

[2] = test system: placental tissues of P.g.-infected mice; test: Histological and immunohistochemical observation of placental tissues at gestational age of 17 days; assay type: in vivo, mouse; conditions: placenta at gestational age of 17 days; P.g./N-Lac group vs P.g. group
Description: Immunohistochemical staining was performed in a conventional manner. As PMNL markers, MCA771GA (rat anti-neutrophils antibody, purchased from AbD Serotec (Raleigh, N.C., USA), 1:5000), rabbit monoclonal anti-COX-2 antibody (purchased from Cell Signaling Technology (Danvers, Mass., USA), 1:100), goat anti-TNF-α antibody (purchased from Santa Cruz Biotechnology, Inc. (Santa Cruz, Calif., USA), 1:50), and rat anti-galectin-3 antibody (purchased from BioLegend, Inc (San Diego, Calif., USA), 1:500) were used. A high polymer method (Histofine Max-PO; Nichirei Biosciences) was used for immunohistochemical staining of the markers. Specificity of the antibodies was ascertained by substituting PBS/serum for each antibody.
8-wks-old female C57Bl/6J mice were infected with P.g. w83 strain via the pulp chambers of the first molars. After periapical granuloma, which serves as a persistent source of P.g., was established at 6wks post-infection, mating was started (P.g. group). A half of the mice in P.g. group was intraperitoneally administered with 5 mg/kg of N-Lac (Sigma-Aldrich) at the gestational ages of 12, 15 and 18 days (P.g./N-Lac group). Healthy pregnant mice without P.g. infection were used as a control (NC group). The gestational period was compared among the groups. […]

HTR-8 cells [3] = test: Effect of Gal-3 inhibitor on human placenta cell line stimulated with P.g.-LPS (Western-blotting); assay type: cell-based
Description: Human trophoblast cell line—HTR-8/Svneo cells were kindly gifted from Prof. Charles H. Graham (Queen's University, Canada). The cells were grown in RPMI 1640 media (Nissui Pharmaceutical Co., Tokyo, Japan) supplemented with 10% heat-inactivated FBS (Invitrogen) and 100 Uml penicillin-streptomycin (Gibco, Tokyo, Japan). For the experiments, cells were seeded at a density of 5×10^5 cells in 35 mm culture dishes. The cells were maintained at 37° C. in a normal atmosphere containing 5% CO2. The cells were stimulated by 1 μg/ml of P.g.-LPS (Invivogen, SanDiego, Calif., USA), expression of Gal-3 mRNA and Gal-3 levels in the culture media were measured at one, two, or three days after the stimulation.
HTR-8 cells were stimulated with P.g.-LPS (1 μg/ml) and N-Lac (10^−9 M and 10^−8 M), and the expression levels of Gal-3, TNF-α, COX-2 and IL-8 in the culture supernatants were measured by RT-PCR and Western-blotting.

HTR-8 cells [4] = test: TNF-α stimulation of HTR-8 cells, Gal-3 production; assay type: cell-based, human; conditions: 10 ng/ml rhTNF-α; 2 days post-stimulation; P<0.01
Description: Gal-3 protein levels in the cell culture supernatants were analyzed by Human Galectin-3 Immunoassay (R&D Systems) as the manufacturer recommended. Statistical differences among the experimental groups were evaluated by analysis of T test using GraphPad Prism (version 6.0c, CA, USA) with the level of significance set at P<0.01**.
Effect of TNF-α, which is produced by P.g.-LPS stimulation, on Gal-3 production was studied.
Recombinant human TNF-α (rhTNF-α, purchased from R&D Systems (Minneapolis, Minn., USA)) was applied at 10 ng/ml to HTR-8 cells for 1, 2 or 3 days and the Gal-3 protein levels in the culture media were measured. The cell culture and measurement of the Gal-3 protein levels were performed in the same manner as in Example 6.

[5] = P.g.-LPS 1 μg/ml and N-Lac (10^−9 M and 10^−8 M)

For CC(=O)N[C@H]1C(O)O[C@H](CO)[C@@H](O[C@@H]2O[C@H](CO)[C@H](O)[C@H](O)[C@H]2O)[C@@H]1O (some centres unmarked) [N-Lac, N-acetyllactosamine], the “preterm birth induced by P.g.” value ([1]; p<0.05) was “significantly suppressed preterm birth”, the average gestational period ([1]; P.g./N-Lac group, NC 20, P.g. 18.3) was 20.7 days and the “decrease of CD31 and expression of TNF-α, COX-2 and Gal-3 in placenta” value [2] was “improved”. The “denature and detachment of the amnion membrane, denature and necrosis of the placenta, increase of inflammatory cell infiltration” value [2] was “not observed”, the “Gal-3 expression upregulated by the P.g.-LPS stimulation” value (HTR-8 cells [3]; [5]) was “remarkably reduced” and the “TNF-α expression upregulated by the P.g.-LPS stimulation” value (HTR-8 cells [3]; [5]) was “remarkably reduced”. For the same compound, the “expression of TNF-α” value (HTR-8 cells [3]; incubation with N-Lac (10^−9 M and 10^−8 M)) was “suppressed”.

In the case of TNF-α, the “Gal-3 protein level in culture media” value (HTR-8 cells [4]) was “significant increased”.
